Measurements reported in the NIST ThermoML archive (doi:10.1016/j.jct.2004.11.013).

What was measured:
[1] = Liquid; for speed of sound / mass density: 303.15 K, 101.33 kPa; for speed of sound: Linear variable-path acoustic interferometer; for mass density: Pycnometric method
[2] = xn = mol fraction of the nth substance listed; conditions: 303.15 K, 101.33 kPa, Liquid, Direct dilatometry
[3] = φn = volume fraction of the nth substance listed; conditions: 303.15 K, 101.33 kPa, Liquid, Linear variable-path acoustic interferometer

CC(Cl)(Cl)Cl [1,1,1-trichloroethane]
[1]
Conditions | Normal boiling temperature [°C] | mass density [kg/m3] | speed of sound [m/s]
– | 74 | 1320.92 | 943.2

CC(Cl)(Cl)Cl [1,1,1-trichloroethane] + BrCCBr
Conditions | excess molar volume [m3/mol] | speed of sound [m/s]
[2], x2 = 0.0902 | -7.3e-08 | –
[2], x2 = 0.1941 | -1.2e-07 | –
[2], x2 = 0.2744 | -1.33e-07 | –
[2], x2 = 0.4169 | -1.11e-07 | –
[2], x2 = 0.5239 | -6.4e-08 | –
[2], x2 = 0.6304 | -6e-09 | –
[2], x2 = 0.6818 | 2.1e-08 | –
[2], x2 = 0.8709 | 6.9e-08 | –
[3], φ2 = 0 | – | 943.2
[3], φ2 = 0.0787 | – | 942.1
[3], φ2 = 0.1718 | – | 942.1
[3], φ2 = 0.2457 | – | 944.6
[3], φ2 = 0.3811 | – | 950.4
[3], φ2 = 0.4866 | – | 958.1
[3], φ2 = 0.595 | – | 961
[3], φ2 = 0.6486 | – | 965.1
[3], φ2 = 0.8532 | – | 973.6

ClC(Cl)C(Cl)Cl [1,1,2,2-tetrachloroethane]
[1]
Conditions | Normal boiling temperature [°C] | mass density [kg/m3] | speed of sound [m/s]
– | 146.10 | 1578.57 | 1133.1

ClC(Cl)C(Cl)Cl [1,1,2,2-tetrachloroethane] + BrCCBr
Conditions | speed of sound [m/s]
[3], φ2 = 0 | 1133.1

BrCCBr [1,2-dibromoethane]
[1]
Conditions | Normal boiling temperature [°C] | mass density [kg/m3] | speed of sound [m/s]
– | 131.50 | 2159.67 | 984

BrCCBr [1,2-dibromoethane] + CC(Cl)(Cl)Cl
Conditions | speed of sound [m/s]
[3], φ1 = 1 | 984

BrCCBr [1,2-dibromoethane] + ClC(Cl)=C(Cl)Cl
Conditions | excess molar volume [m3/mol] | speed of sound [m/s]
[2], x1 = 0.1133 | 3e-07 | –
[2], x1 = 0.2647 | 4.61e-07 | –
[2], x1 = 0.3594 | 4.72e-07 | –
[2], x1 = 0.4806 | 4.4e-07 | –
[2], x1 = 0.6289 | 3.66e-07 | –
[2], x1 = 0.7163 | 3.1e-07 | –
[2], x1 = 0.7934 | 2.55e-07 | –
[2], x1 = 0.906 | 1.43e-07 | –
[3], φ1 = 0.0955 | – | 1010.1
[3], φ1 = 0.2327 | – | 992.8
[3], φ1 = 0.321 | – | 985.8
[3], φ1 = 0.4381 | – | 980.4
[3], φ1 = 0.5881 | – | 975.3
[3], φ1 = 0.6802 | – | 975.1
[3], φ1 = 0.7639 | – | 973.7
[3], φ1 = 0.8904 | – | 978.1
[3], φ1 = 1 | – | 984

BrCCBr [1,2-dibromoethane] + ClC(Cl)C(Cl)Cl
Conditions | excess molar volume [m3/mol] | speed of sound [m/s]
[2], x1 = 0.0885 | -5.2e-08 | –
[2], x1 = 0.1554 | -9e-08 | –
[2], x1 = 0.3032 | -1.56e-07 | –
[2], x1 = 0.4447 | -1.71e-07 | –
[2], x1 = 0.5365 | -1.56e-07 | –
[2], x1 = 0.6757 | -9.8e-08 | –
[2], x1 = 0.7546 | -5.9e-08 | –
[2], x1 = 0.9124 | -3e-09 | –
[3], φ1 = 0.0736 | – | 1123.4
[3], φ1 = 0.1308 | – | 1112.7
[3], φ1 = 0.2625 | – | 1092.9
[3], φ1 = 0.3958 | – | 1069.6
[3], φ1 = 0.4864 | – | 1054.5
[3], φ1 = 0.6302 | – | 1031.7
[3], φ1 = 0.7156 | – | 1019.7
[3], φ1 = 0.895 | – | 995
[3], φ1 = 1 | – | 984

BrCCBr [1,2-dibromoethane] + ClC=C(Cl)Cl
Conditions | speed of sound [m/s]
[3], φ1 = 1 | 984

BrCCBr [1,2-dibromoethane] + ClCCCl
Conditions | excess molar volume [m3/mol] | speed of sound [m/s]
[2], x1 = 0.0938 | 1.7e-08 | –
[2], x1 = 0.1759 | 3e-08 | –
[2], x1 = 0.2673 | 4.2e-08 | –
[2], x1 = 0.3502 | 4.7e-08 | –
[2], x1 = 0.4894 | 5.2e-08 | –
[2], x1 = 0.5845 | 5.1e-08 | –
[2], x1 = 0.7764 | 3.5e-08 | –
[2], x1 = 0.8626 | 2.5e-08 | –
[3], φ1 = 0.1012 | – | 1149.2
[3], φ1 = 0.1885 | – | 1125
[3], φ1 = 0.2842 | – | 1101.8
[3], φ1 = 0.3697 | – | 1079.6
[3], φ1 = 0.5106 | – | 1047.3
[3], φ1 = 0.6049 | – | 1029.8
[3], φ1 = 0.7908 | – | 1001.3
[3], φ1 = 0.8724 | – | 993
[3], φ1 = 1 | – | 984

ClCCCl [1,2-dichloroethane]
[1]
Conditions | Normal boiling temperature [°C] | mass density [kg/m3] | speed of sound [m/s]
– | 83.6 | 1238.28 | 1173.3

ClCCCl [1,2-dichloroethane] + BrCCBr
Conditions | speed of sound [m/s]
[3], φ2 = 0 | 1173.3

ClC(Cl)=C(Cl)Cl [tetrachloroethene]
[1]
Conditions | Normal boiling temperature [°C] | mass density [kg/m3] | speed of sound [m/s]
– | 121.30 | 1606.36 | 1027.8

ClC(Cl)=C(Cl)Cl [tetrachloroethene] + BrCCBr
Conditions | speed of sound [m/s]
[3], φ2 = 0 | 1027.8

ClC=C(Cl)Cl [trichloroethene]
[1]
Conditions | Normal boiling temperature [°C] | mass density [kg/m3] | speed of sound [m/s]
– | 87.2 | 1451.34 | 1013.7

ClC=C(Cl)Cl [trichloroethene] + BrCCBr
Conditions | excess molar volume [m3/mol] | speed of sound [m/s]
[2], x2 = 0.0956 | 6.3e-08 | –
[2], x2 = 0.2077 | 1.29e-07 | –
[2], x2 = 0.3035 | 1.74e-07 | –
[2], x2 = 0.4561 | 2.09e-07 | –
[2], x2 = 0.5499 | 2.08e-07 | –
[2], x2 = 0.7069 | 1.64e-07 | –
[2], x2 = 0.7903 | 1.25e-07 | –
[2], x2 = 0.8924 | 6.4e-08 | –
[3], φ2 = 0 | – | 1013.7
[3], φ2 = 0.0922 | – | 1000.5
[3], φ2 = 0.2012 | – | 990.5
[3], φ2 = 0.2951 | – | 982.5
[3], φ2 = 0.4462 | – | 973.5
[3], φ2 = 0.54 | – | 971.2
[3], φ2 = 0.6986 | – | 968.2
[3], φ2 = 0.7836 | – | 972.4
[3], φ2 = 0.8885 | – | 975.9
